Measured values taken from patent publication US11767310B2, “Nicotinamide RIPK1 inhibitors” (AbbVie Inc., priority 2021, dated 2023).
Read-outs that look alike come from different tables or passages of the source.

Legend:
Assay in all cases: Kinase binding screen
Conditions in all cases: read-out: Percent Control at 100 nM Compound Concentration
MAPKAPK2 = MAPKAPK2 (Homo sapiens (Human), UniProt P49137)
MST4 = MST4 (Homo sapiens (Human), UniProt Q9P289)
HCK = HCK (Homo sapiens (Human), UniProt P08631)
MAST1 = MAST1 (Homo sapiens (Human), UniProt Q9Y2H9)
NEK2 = NEK2 (Homo sapiens (Human), UniProt P51955)
SNARK = SNARK (Homo sapiens (Human), UniProt Q9H093)
DYRK1B = DYRK1B (Homo sapiens (Human), UniProt Q9Y463)
CDK4-cyclinD3 = CDK4-cyclinD3 (Homo sapiens (Human), UniProt P11802)
MARK1 = MARK1 (Homo sapiens (Human), UniProt Q9P0L2)
Chain of MARK1 (Q9P0L2 whole entry): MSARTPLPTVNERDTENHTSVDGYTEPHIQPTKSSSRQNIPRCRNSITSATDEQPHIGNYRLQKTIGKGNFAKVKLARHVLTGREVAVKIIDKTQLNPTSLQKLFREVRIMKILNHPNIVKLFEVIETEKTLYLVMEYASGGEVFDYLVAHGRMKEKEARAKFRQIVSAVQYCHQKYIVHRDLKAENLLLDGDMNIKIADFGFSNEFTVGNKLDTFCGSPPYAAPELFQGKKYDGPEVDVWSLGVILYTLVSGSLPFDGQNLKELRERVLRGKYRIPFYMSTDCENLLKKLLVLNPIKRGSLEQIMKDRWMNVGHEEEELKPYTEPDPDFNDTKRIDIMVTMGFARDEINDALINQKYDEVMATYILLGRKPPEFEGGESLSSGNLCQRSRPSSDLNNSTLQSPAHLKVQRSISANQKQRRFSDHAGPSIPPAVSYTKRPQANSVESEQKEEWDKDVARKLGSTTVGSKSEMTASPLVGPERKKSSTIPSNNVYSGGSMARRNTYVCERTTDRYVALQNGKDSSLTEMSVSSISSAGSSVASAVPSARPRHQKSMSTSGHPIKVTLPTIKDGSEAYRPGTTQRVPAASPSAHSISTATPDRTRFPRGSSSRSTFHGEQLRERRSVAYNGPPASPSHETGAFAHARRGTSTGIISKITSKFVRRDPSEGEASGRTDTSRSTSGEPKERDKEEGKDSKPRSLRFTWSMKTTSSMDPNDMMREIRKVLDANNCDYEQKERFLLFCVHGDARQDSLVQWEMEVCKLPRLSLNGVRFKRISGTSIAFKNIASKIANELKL

FGR = FGR (Homo sapiens (Human), UniProt P09769)
Chain of FGR (P09769 whole entry): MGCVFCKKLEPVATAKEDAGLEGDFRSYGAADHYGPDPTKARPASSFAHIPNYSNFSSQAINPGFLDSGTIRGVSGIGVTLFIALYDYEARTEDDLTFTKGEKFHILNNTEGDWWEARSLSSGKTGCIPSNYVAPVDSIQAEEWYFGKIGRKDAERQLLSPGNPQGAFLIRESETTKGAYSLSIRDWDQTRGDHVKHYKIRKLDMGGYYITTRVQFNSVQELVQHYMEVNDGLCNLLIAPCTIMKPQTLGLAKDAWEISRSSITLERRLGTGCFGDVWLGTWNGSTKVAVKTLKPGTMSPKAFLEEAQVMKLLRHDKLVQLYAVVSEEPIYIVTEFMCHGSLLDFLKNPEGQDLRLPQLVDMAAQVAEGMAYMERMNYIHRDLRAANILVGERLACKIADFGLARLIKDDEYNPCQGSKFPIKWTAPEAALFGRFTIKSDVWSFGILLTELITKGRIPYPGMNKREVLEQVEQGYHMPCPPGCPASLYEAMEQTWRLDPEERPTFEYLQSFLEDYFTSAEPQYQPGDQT

PKMYT1 = PKMYT1 (Homo sapiens (Human), UniProt Q99640)
Chain of PKMYT1 (Q99640 whole entry): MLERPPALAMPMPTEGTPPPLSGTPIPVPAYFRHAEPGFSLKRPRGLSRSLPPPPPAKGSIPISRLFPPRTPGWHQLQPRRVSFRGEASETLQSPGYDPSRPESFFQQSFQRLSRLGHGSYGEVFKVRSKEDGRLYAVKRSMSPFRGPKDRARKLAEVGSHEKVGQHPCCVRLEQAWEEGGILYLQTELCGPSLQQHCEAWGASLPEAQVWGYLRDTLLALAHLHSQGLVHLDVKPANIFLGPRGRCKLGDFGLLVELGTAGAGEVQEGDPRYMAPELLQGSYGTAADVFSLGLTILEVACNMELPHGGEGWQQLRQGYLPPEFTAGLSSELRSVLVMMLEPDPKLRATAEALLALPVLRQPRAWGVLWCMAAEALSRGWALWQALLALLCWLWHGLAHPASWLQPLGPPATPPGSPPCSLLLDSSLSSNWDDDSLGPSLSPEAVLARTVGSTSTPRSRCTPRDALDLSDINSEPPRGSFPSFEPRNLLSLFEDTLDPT

BRSK1 = BRSK1 (Homo sapiens (Human), UniProt Q8TDC3)
PIP5K2C = PIP5K2C (Homo sapiens (Human), UniProt Q8TBX8)
CDK11 = CDK11 (Homo sapiens (Human), UniProt Q9BWU1)
TNIK = TNIK (Homo sapiens (Human), UniProt Q9UKE5)
Chain of TNIK (Q9UKE5 whole entry): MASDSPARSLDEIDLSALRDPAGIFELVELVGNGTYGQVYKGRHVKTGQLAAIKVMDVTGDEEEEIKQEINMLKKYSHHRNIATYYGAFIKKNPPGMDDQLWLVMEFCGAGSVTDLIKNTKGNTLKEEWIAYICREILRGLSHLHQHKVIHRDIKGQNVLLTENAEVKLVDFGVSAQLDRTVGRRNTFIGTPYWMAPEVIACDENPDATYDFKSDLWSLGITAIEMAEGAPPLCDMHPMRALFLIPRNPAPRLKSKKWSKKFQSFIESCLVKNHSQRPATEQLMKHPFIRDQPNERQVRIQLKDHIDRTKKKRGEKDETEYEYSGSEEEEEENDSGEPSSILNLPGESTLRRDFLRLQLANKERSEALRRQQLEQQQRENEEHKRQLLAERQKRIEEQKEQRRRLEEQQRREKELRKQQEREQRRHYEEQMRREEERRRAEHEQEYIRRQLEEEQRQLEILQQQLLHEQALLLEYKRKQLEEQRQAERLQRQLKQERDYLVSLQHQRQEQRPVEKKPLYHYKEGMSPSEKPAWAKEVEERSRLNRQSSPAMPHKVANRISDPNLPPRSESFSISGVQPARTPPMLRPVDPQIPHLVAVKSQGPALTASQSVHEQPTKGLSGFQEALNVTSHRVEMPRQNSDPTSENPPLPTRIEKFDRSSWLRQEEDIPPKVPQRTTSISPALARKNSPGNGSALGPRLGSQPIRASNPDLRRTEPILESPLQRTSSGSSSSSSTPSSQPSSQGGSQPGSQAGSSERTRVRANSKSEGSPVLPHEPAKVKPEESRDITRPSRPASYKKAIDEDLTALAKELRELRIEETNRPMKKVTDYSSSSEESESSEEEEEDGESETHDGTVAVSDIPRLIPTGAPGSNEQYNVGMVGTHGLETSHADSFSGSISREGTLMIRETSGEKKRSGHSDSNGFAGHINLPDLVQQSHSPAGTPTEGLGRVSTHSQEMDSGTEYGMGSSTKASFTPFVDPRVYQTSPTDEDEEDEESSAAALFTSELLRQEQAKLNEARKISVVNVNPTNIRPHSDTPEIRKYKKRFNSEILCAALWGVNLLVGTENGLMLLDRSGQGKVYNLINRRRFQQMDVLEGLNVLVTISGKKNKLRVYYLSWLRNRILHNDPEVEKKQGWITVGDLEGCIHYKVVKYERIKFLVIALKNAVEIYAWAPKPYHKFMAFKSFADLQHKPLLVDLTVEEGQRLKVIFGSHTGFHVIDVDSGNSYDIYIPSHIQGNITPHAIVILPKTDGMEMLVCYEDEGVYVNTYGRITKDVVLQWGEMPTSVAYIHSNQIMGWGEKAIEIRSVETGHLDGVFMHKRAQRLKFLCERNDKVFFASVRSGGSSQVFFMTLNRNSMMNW

HIPK3 = HIPK3 (Homo sapiens (Human), UniProt Q9H422)
BMPR1B = BMPR1B (Homo sapiens (Human), UniProt O00238)
MEK1 = MEK1 (Homo sapiens (Human), UniProt Q02750)
JNK3 = JNK3 (Homo sapiens (Human), UniProt P53779)
PIK3CA = PIK3CA (Homo sapiens (Human), UniProt P42336)
Chain of PIK3CA (P42336 whole entry): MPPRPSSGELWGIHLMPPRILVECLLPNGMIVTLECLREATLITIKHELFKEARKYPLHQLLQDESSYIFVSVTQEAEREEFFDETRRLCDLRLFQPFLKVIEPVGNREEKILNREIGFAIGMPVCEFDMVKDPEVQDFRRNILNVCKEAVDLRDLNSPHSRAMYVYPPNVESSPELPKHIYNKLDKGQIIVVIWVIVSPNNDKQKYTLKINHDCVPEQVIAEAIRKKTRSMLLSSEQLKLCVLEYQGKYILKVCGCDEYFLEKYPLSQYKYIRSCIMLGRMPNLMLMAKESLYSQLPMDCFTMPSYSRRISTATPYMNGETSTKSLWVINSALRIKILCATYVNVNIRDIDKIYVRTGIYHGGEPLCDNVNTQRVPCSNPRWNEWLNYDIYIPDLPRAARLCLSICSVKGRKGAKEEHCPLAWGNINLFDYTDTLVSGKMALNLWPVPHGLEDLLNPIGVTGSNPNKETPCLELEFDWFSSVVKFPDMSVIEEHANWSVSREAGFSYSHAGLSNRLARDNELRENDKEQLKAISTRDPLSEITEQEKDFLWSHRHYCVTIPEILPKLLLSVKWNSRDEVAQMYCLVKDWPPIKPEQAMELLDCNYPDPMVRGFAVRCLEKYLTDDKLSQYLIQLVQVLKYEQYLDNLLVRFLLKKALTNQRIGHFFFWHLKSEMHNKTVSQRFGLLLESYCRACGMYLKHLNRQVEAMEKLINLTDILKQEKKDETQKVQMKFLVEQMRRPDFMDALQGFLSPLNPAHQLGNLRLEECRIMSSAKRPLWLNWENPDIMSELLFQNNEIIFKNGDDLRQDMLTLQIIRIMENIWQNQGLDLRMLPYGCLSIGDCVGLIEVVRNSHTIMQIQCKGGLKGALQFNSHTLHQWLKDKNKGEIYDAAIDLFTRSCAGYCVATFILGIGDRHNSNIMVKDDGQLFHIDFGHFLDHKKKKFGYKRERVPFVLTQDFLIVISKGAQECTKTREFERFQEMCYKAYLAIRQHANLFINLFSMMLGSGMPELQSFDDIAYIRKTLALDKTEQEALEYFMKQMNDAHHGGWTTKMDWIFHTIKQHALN

PIK3CA(H1047Y) = PIK3CA(H1047Y) (Homo sapiens (Human), UniProt P42336, H1047Y)
Chain of PIK3CA(H1047Y) (P42336 whole entry H1047Y): as the sequence (P42336 whole entry) above, with H1047Y counted along it

LCK = LCK (Homo sapiens (Human), UniProt P06239)
EGFR(T790M) = EGFR(T790M) (Homo sapiens (Human), UniProt P00533, T790M)
EPHA8 = EPHA8 (Homo sapiens (Human), UniProt P29322)
[1] = biological target: ABL1(H396P)-phosphorylated (Homo sapiens (Human), UniProt P00519, H396P)
[2] = biological target: TYK2(JH2domain-pseudokinase) (Homo sapiens (Human), UniProt P29597)
ERBB3 = ERBB3 (Homo sapiens (Human), UniProt P21860)
EGFR(L747-T751del,Sins) = EGFR(L747-T751del,Sins) (Homo sapiens (Human), UniProt P00533, DEL747-751/INS746S)
Chain of EGFR(L747-T751del,Sins) (P00533 other isoform, or with tags, fused parts or gaps del 1-668/ins S behind 746/del 747-751/del 1012-1210 limits assumed): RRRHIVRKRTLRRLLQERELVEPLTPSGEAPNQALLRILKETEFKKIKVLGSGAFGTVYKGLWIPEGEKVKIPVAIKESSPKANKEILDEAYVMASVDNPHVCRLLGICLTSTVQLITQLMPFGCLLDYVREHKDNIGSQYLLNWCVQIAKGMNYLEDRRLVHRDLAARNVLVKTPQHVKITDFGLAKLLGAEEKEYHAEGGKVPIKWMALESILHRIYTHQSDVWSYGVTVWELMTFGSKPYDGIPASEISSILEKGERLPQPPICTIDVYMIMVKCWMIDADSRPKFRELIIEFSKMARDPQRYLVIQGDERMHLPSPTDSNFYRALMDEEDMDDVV

Chain of MST4 (Q9P289 whole entry): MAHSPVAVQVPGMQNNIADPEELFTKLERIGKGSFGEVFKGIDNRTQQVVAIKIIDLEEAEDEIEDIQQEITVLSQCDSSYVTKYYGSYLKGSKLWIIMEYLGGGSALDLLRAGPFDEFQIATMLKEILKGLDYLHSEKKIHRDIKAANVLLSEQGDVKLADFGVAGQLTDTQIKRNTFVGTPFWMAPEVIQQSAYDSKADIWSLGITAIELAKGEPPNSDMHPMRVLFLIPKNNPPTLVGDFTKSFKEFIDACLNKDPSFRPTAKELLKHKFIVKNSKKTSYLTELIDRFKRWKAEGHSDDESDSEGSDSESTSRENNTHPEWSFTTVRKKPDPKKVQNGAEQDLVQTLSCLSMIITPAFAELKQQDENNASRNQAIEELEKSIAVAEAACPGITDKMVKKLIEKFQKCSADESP

For `CN(C[C@@H](O)Cc1ccccc1)C(=O)c1cncc(C#Cc2cnn(C(F)F)c2)c1` [Example 2, (S)-5-((1-(difluoromethyl)-1H-pyrazol-4-yl)ethynyl)-N-(2-hydroxy-3-phenylpropyl)-N-methylnicotinamide], the remaining activity at 0.1 µM (MAPKAPK2; MAPKAPK2) was 100%, the remaining activity at 0.1 µM (MST4; MST4) was 97% and the remaining activity at 0.1 µM (HCK; HCK) was 100%. For the same compound, the remaining activity at 0.1 µM (MAST1; MAST1) was 100%, the remaining activity at 0.1 µM (NEK2; NEK2) was 100% and the remaining activity at 0.1 µM (SNARK; SNARK) was 99%. It also gave a remaining activity at 0.1 µM (DYRK1B; DYRK1B) of 97%, a remaining activity at 0.1 µM (CDK4-cyclinD3; CDK4-cyclinD3) of 100% and a remaining activity at 0.1 µM (MARK1; MARK1) of 100%. It also gave a remaining activity at 0.1 µM (FGR; FGR) of 100%, a remaining activity at 0.1 µM (PKMYT1; PKMYT1) of 99% and a remaining activity at 0.1 µM (BRSK1; BRSK1) of 99%. For the same compound, the remaining activity at 0.1 µM (PIP5K2C; PIP5K2C) was 63%, the remaining activity at 0.1 µM (CDK11; CDK11) was 4.8% and the remaining activity at 0.1 µM (TNIK; TNIK) was 100%. For the same compound, the remaining activity at 0.1 µM (HIPK3; HIPK3) was 100%, the remaining activity at 0.1 µM (BMPR1B; BMPR1B) was 98% and the remaining activity at 0.1 µM (MEK1; MEK1) was 98%. The remaining activity at 0.1 µM (JNK3; JNK3) was 83%, the remaining activity at 0.1 µM (PIK3CA; PIK3CA) was 100% and the remaining activity at 0.1 µM (PIK3CA(H1047Y); PIK3CA(H1047Y)) was 71%. The remaining activity at 0.1 µM (LCK; LCK) was 100%, the remaining activity at 0.1 µM (EGFR(T790M); EGFR(T790M)) was 100% and the remaining activity at 0.1 µM (EPHA8; EPHA8) was 99%. The remaining activity at 0.1 µM ([1]; ABL1(H396P)-phosphorylated) was 94%, the remaining activity at 0.1 µM ([2]; TYK2(JH2domain-pseudokinase)) was 100% and the remaining activity at 0.1 µM (ERBB3; ERBB3) was 100%. For the same compound, the remaining activity at 0.1 µM (EGFR(L747-T751del,Sins); EGFR(L747-T751del,Sins)) was 100%.

`CN(C[C@H](Cc1ccccc1)OP(=O)(O)O)C(=O)c1cncc(C#Cc2cnn(C(F)F)c2)c1` [Example 19, (S)-1-(5-((1-(difluoromethyl)-1H-pyrazol-4-yl)ethynyl)-N-methylnicotinamido)-3-phenylpropan-2-yl dihydrogen phosphate] showed a remaining activity at 0.1 µM (MAPKAPK2) of 100%, a remaining activity at 0.1 µM (MST4) of 84% and a remaining activity at 0.1 µM (HCK) of 100%. For the same compound, the remaining activity at 0.1 µM (MAST1) was 97%, the remaining activity at 0.1 µM (NEK2) was 100% and the remaining activity at 0.1 µM (SNARK) was 99%. It also gave a remaining activity at 0.1 µM (DYRK1B) of 79%, a remaining activity at 0.1 µM (CDK4-cyclinD3) of 100% and a remaining activity at 0.1 µM (MARK1) of 96%. The remaining activity at 0.1 µM (FGR) was 99%, the remaining activity at 0.1 µM (PKMYT1) was 100% and the remaining activity at 0.1 µM (BRSK1) was 99%. For the same compound, the remaining activity at 0.1 µM (PIP5K2C) was 74%, the remaining activity at 0.1 µM (CDK11) was 92% and the remaining activity at 0.1 µM (TNIK) was 100%. It also gave a remaining activity at 0.1 µM (HIPK3) of 88%, a remaining activity at 0.1 µM (BMPR1B) of 99% and a remaining activity at 0.1 µM (MEK1) of 99%. The remaining activity at 0.1 µM (JNK3) was 86%, the remaining activity at 0.1 µM (PIK3CA) was 100% and the remaining activity at 0.1 µM (PIK3CA(H1047Y)) was 72%. The remaining activity at 0.1 µM (LCK) was 95%, the remaining activity at 0.1 µM (EGFR(T790M)) was 100% and the remaining activity at 0.1 µM (EPHA8) was 100%. The remaining activity at 0.1 µM [1] was 93%, the remaining activity at 0.1 µM [2] was 90% and the remaining activity at 0.1 µM (ERBB3) was 100%. It also gave a remaining activity at 0.1 µM (EGFR(L747-T751del,Sins)) of 79%.
